In series [1] the test system is AhR. Kind of series: XRE reporter assay for AD evaluation (AD cell model). The following applies: for IC50: Homo sapiens, read-out: IC50 of inhibition of AD (XRE reporter expression); for IC50 / inhibitory effect in the AD cell model, compared in words: 24 h; for inhibitory effect in the AD cell model, compared in words: 0.5 μM FICZ, XRE-NLuc::HaCaT, not as strong as linalyl acetate. In general terms: A reporter such as luciferase makes a cellular process visible.

Series [2] deals with ARE-NLuc::HaCaT. The series can be described thus: Keratinocyte activation assay (ARE reporter assay, OECD TG442D). The following applies: 48 h; positive criteria of TG442D.
Series [3] relates to CD86 on U937 cells. The arrangement: method as in PMID 23576290. The following applies: cited from earlier work.
In series [4] the test system is AhR. Kind of series: AhR mRNA level by qPCR in HaCaT cells. The series is classed as cell-based, human. To be noted: FICZ with or without linalyl acetate or linalool, 24 h.
The next series relates to Artemin. The series can be described thus: FICZ-induced Artemin mRNA expression by qPCR in HaCaT cells. The following applies: Homo sapiens, 24 h, read-out: IC50 of decrease of FICZ-induced Artemin expression. Format: cell-based. Background: In qPCR the cycle at which signal appears reflects the starting amount.
For series [5] the following is noted: cited from earlier work.
The test system of series [6] is ARE-NLuc::HaCaT. The series can be described thus: Cell viability (WST-1) in the keratinocyte activation assay. The following applies: 48 h, mean ± SD of three experiments. In general terms: Formazan colour is commonly taken as a measure of viable cells.
The test system of series [7] is ARE-NLuc::HaCaT.
The subject of series [8] is ARE-NLuc::HaCaT. This is another data set of the same source.
Series [9] concerns ARNT. The series can be described thus: ARNT mRNA level by qPCR in HaCaT cells. To be noted: FICZ with or without linalyl acetate or linalool, 24 h. The series is classed as cell-based, human.
Excerpt: Briefly, the total RNA was extracted, and reverse transcribed using SuperPrep II Cell Lysis & RT Kit for qPCR (#SCQ-401, Toyobo, Tokyo, Japan), according to the manufacturer’s instructions. The cDNA obtained was subjected to a quantitative polymerase chain reaction (qPCR) with THUNDERBIRD Next SYBR qPCR Mix (#QPX-201, Toyobo) according to the manufacturer’s protocol using the StepOne Real-Time PCR System (Thermo Fisher Japan, Tokyo, Japan). The expression of each gene obtained using qPCR was normalized to that of glyceraldehyde-3-phosphate dehydrogenase (GAPDH). […] The cycle threshold (Ct) value of GAPDH in each sample was used as an internal control.
Total RNA was then extracted and reverse transcribed to cDNA that was subjected to qPCR using the primer set listed in S2 Table in S1 File. AhR and ARNT expression was normalized to GAPDH expression. Fold induction was calculated as the vehicle set at 1. Values in the graphs represent the mean ± SD of two independent experiments. […] All the Western blots are shown from two (anti-ARNT) or three (anti-AhR and anti-gamma tubulin) independent experiments. […] The intensities are relative to the vehicle set at 1.
Series [10] has as its system ARNT. The series can be described thus: ARNT protein level by western blotting in HaCaT cells. The series is classed as cell-based, human. To be noted: FICZ alone, 24 h.
Excerpt: All the Western blots are shown from two (anti-ARNT) or three (anti-AhR and anti-gamma tubulin) independent experiments. […] The intensities are relative to the vehicle set at 1.
For series [11] the following is noted: cited from earlier work. This is another data set of the same source.
A further series deals with HaCaT cells. The series can be described thus: RNAseq on treated HaCaT cells analysed by DisGeNET-Metascape. Format: cell-based, human. The following applies: authors' reply to reviewer, data not shown. The source says:
Thank you for your comment. […] To clarify that our conclusion is limited, we have added some words in the revised Discussion section.

For series [12], the system named is U937 cells. The following applies: human.
Series [13] has as its system CD86 on U937 cells. The following applies: for CD86+ FL1 positivity (%): 200 µg/mL, control printed for each of three test series.
Series [14] deals with AhR. The series can be described thus: AhR protein level by western blotting in HaCaT cells. Format: cell-based, human. To be noted: FICZ and linalyl acetate, 24 h. Here is the method:
Sodium dodecyl sulfate–polyacrylamide gel electrophoresis (SDS–PAGE) and western blotting were performed as described previously. Cell lysates were prepared in lysis buffer [10 mM HEPES-KOH, pH 7.4, 100 mM KCl, 1 mM MgCl2, 1% Triton X-100, and protease inhibitor cocktails (Nacalai)]. After incubation for 10 min on ice, the lysate was clarified by centrifugation at 14,000 × g for 10 min. The supernatants were then subjected to SDS–PAGE on a 7.5% gel (Bio-Rad). The gel was electrotransferred to polyvinylidene fluoride or polyvinylidene difluoride membranes (pore size: 0.45 μm, Merck Group Japan, Tokyo, Japan). The proteins on the membrane were detected by incubation with diluted anti-AhR, anti-ARNT (Santa Cruz Biotechnology, Cosmo Bio Co., LTD, Tokyo, Japan), and anti-γ-tubulin (Sigma, Sigma-Aldrich Japan, Tokyo, Japan) followed by HRP-conjugated anti-mouse immunoglobulin G (Cell Signaling, CST Japan, Tokyo, Japan) using a charge-coupled device camera.
Next, we measured the mRNA and protein expression of AhR and ARNT by qPCR and western blotting, respectively.
Total RNA was then extracted and reverse transcribed to cDNA that was subjected to qPCR using the primer set listed in S2 Table in S1 File. […] Fold induction was calculated as the vehicle set at 1. […] The right-side numbers are experimental numbers. d) Band intensity of each lane was quantified by ImageJ and normalized to […]. […]

The nature of series [15]: Cell viability (PI staining) in the dendritic cell activation assay. The following applies: human, U937 cells, %Viability, control printed for each of three test series.
For series [16], the system named is U937 cells. Described as above. To be noted: 200 µg/mL, control printed for each of three test series.

Molecules are shown by their SMILES. Where “and” joins values, the source holds several entries; their conditions need not be identical. Equal values may be shown once. Read-outs that look alike come from different tables or passages of the source.

This is an account of results in paper PMC10769034, “Aromatic oil from lavender as an atopic dermatitis suppressant” (PLOS ONE, 2024).

By IC50 is commonly meant the midpoint of a concentration-inhibition curve. A word on the viability: it is the share of living cells, or the viability signal relative to a control.

As for `C=CC(C)(O)CCC=C(C)C` (centres unmarked) [Linalool], the IC50 in the series on AhR [1] was over 1000 µM; in the series with Artemin (5 μM FICZ, qPCR normalized to GAPDH), 194 µM. For the same compound, in the series on ARE-NLuc::HaCaT [2], the “outcome of the keratinocyte activation assay” value is on record as “negative”. For the same compound, the “outcome of the dendritic cell activation assay” value in the series on CD86 on U937 cells [3] was “positive”. Also, the “AhR mRNA level” value with AhR [4] is recorded as “did not change”. Moreover, in series [5], the “Patch test (human)” value is recorded as 0.2% positive ^##, ^###. In the series with ARE-NLuc::HaCaT [6], this compound yielded a CV70 of over 2000 µM.
Take `CCC(C)(O)CCCC(C)C` (centres unmarked) [THL, tetrahydrolinalool]: the “outcome of the keratinocyte activation assay” value in the series with ARE-NLuc::HaCaT [7] is “weakly positive”. The “inhibitory effect in the AD cell model, compared in words” value in the series on AhR [1] is “stronger inhibitory effects than linalool”. In the series on ARE-NLuc::HaCaT [8], the CV70 turned out to be 1416 ± 90.6 µM.
Turning to `O=Cc1c2[nH]c3ccccc3c2cc2[nH]c3ccccc3c12` [FICZ, 6-formylindolo[3,2-b]carbazole], the “ARNT mRNA level” value in the series on ARNT [9] is listed as “did not change”. The ARNT protein level entry with ARNT [10] is recorded as “increased”. In addition, in the series on AhR [4], the “AhR mRNA level” value is “did not change”.
As for `C=CC(C)(O)CCCC(C)C` (centres unmarked) [DHL, 6,7-Dihydrolinalool], in the series on ARE-NLuc::HaCaT [7], the “outcome of the keratinocyte activation assay” value is reported as “weakly positive”. The “inhibitory effect in the AD cell model, compared in words” value in the series on AhR [1] was “stronger inhibitory effects than linalool”. Also, the CV70 in the series on ARE-NLuc::HaCaT [8] was 1319 ± 52.3 µM.
Regarding `C=CC(C)(CCC=C(C)C)OC(C)=O` (centres unmarked) [Linalyl acetate], in [11], the “Key event 4, Local lymph node assay” value is listed as “weak positivity”. Besides, the “evidence of contact allergy in RNAseq” value with HaCaT cells is on record as “no evidence of contact allergy”. Moreover, the IC50 with AhR [1] came to 519 µM; in the series on Artemin it was 3.6 µM. Besides, the XRE reporter expression entry with AhR [1] (without activation of AhR by FICZ) was “decreased XRE reporter expression”. The CV70 in the series on U937 cells [12] stood at 16 ± 3.8 µg/mL; in the series with ARE-NLuc::HaCaT [6], 1466 ± 45.4 µM. The “outcome of the keratinocyte activation assay” value with ARE-NLuc::HaCaT [2] is “weakly positive”. For the same compound, in the series with AhR [4], the “AhR mRNA level” value is on record as “did not change”. Further, in series [5], the patch test result is given as “negativity”. In addition, the “S.I. value of CD86” value in the series on CD86 on U937 cells [13] is on record as “less than 150”. The “outcome of the dendritic cell activation assay” value in the series on CD86 on U937 cells [13] was “negative”. Further, the “reduction of AhR protein level compared with FICZ alone” value in the series on AhR [14] was “approximately 30%”.
Regarding `CC(O)C(=O)O` (centres unmarked) [lactic acid], the viability at 48 h, 200 µg/mL in series [15] (Experiment 1, 48 h) was found to be 97.4%; in [15] (Experiment 2, 48 h), 96.4%. The “%Viability” value in the series with U937 cells [16] (Experiment 1, 48 h) is 96.2%; in the series on U937 cells [16] (Experiment 2, 48 h), 95.4% and 94.4%. Also, the “CD86+ FL1 positivity (%)” value in the series with CD86 on U937 cells [13] (Experiment 1, 48 h) is 11.5% and 10.1%; in the series with CD86 on U937 cells [13] (Experiment 2, 48 h) it was 8.4% and 12.6% and 11.7%.
Regarding `C=C(C)C(=O)OCCOC(=O)C(=C)C` [Ethylene glycol dimethacrylate, ethylene glycol dimethacrylate, reference compound], the “outcome of the keratinocyte activation assay” value in the series with ARE-NLuc::HaCaT [2] is given as “positive”. Moreover, the CV70 in the series with ARE-NLuc::HaCaT [6] and with ARE-NLuc::HaCaT [6] (listed as EGDMA) was 523 ± 59.0 µM throughout.
